From patent publication US9511073B2, “Aromatic amides and uses thereof” (TAXIS Pharmaceuticals, Inc., priority 2011, dated 2016)
Values after ≈ are worked out from the molar mass of the structure shown.

Test system: Staphylococcus aureus (Isolate ID ATCC 29213)
Test: Bacterial assay: MIC by broth microdilution or agar dilution (CLSI), S. aureus ATCC 29213
Assay type: cell-based
Details: Staphylococcus aureus, ATCC29213, read-out: S. aureus MIC (μg/mL) Activity Range, S. aureus (ATCC29213)
Protocol: Compounds are tested for antimicrobial activity by susceptibility testing in liquid or on solid media. Minimum inhibitory concentrations (MICs) for compounds against each strain are determined by the broth microdilution or agar dilution method according to the guidelines of the Clinical Laboratories and Standards Institute, formerly the National Committee for Clinical Laboratory Standards (Clinical Laboratories and Standards Institute. Methods for Dilution Antimicrobial Susceptibility Tests for Bacteria That Grow Aerobically; Approved Standard—Seventh Edition. Document M7-A7. CLSI, Wayne, Pa., 2006; Clinical Laboratories and Standards Institute). The bacterial strains tested include S. aureus (Staphylococcus aureus (Isolate ID ATCC 29213)) and an FtsZ mutant of this isolate (FtsZ-G196A Staphylococcus aureus (Isolate ID GG/190723/sa/1.2)). Compound MICs were determined to be in the following activity ranges “A” activity≦0.25 μg/mL; “B” activity>0.25 μg/mL-1.0 μg/mL; “C” activity>1.0 μg/mL-16 μg/mL; “D” activity>16 μg/mL and ND=not determined. The bracketed entries indicate entantiomer(s) and their activity.

Question: `CC(=O)NCC(Oc1ccc(F)c(C(N)=O)c1F)c1nc(-c2ccc(C(F)(F)F)cc2)co1` (centres unmarked) [Compound 282, 3-(2-acetamido-1-(4-(4-(trifluoromethyl)phenyl)oxazol-2-yl)ethoxy)-2,6-difluorobenzamide] was tested. Which MIC did it give?
Answer: Its MIC is greater than 16 µg/mL.

Question: How did the MIC turn out when `CNC(=O)CCC(Oc1ccc(F)c(C(N)=O)c1F)c1nc(-c2ccc(C(F)(F)F)cc2)c(Br)o1` (centres unmarked) [Compound 93, 3-(1-(5-bromo-4-(4-(trifluoromethyl)phenyl)oxazol-2-yl)-4-(methylamino)-4-oxobutoxy)-2,6-difluorobenzamide] was run?
Answer: The MIC was 0.25 to 1 µg/mL (≈ 0.445 to 1.78 µM).

Question: How did the MIC turn out when `NC(=O)c1c(F)ccc(OC(CO)c2nc(-c3ccc(Cl)c(F)c3)c(Br)o2)c1F` (centres unmarked) [Compound 225, 3-(1-(5-bromo-4-(4-chloro-3-fluorophenyl)oxazol-2-yl)-2-hydroxyethoxy)-2,6-difluorobenzamide] was run?
Answer: Its MIC is 0.25 to 1 µg/mL (≈ 0.508 to 2.03 µM).

Question: Which MIC does the source give for `CN(Cc1ccncc1)C(=O)OCC(Oc1ccc(F)c(C(N)=O)c1F)c1nc(-c2ccc(C(F)(F)F)cc2)c(Br)o1` (centres unmarked) [Compound 186, 2-(5-bromo-4-(4-(trifluoromethyl)phenyl)oxazol-2-yl)-2-(3-carbamoyl-2,4-difluorophenoxy)ethyl methyl(pyridin-4-ylmethyl)carbamate] here?
Answer: The MIC was 0.25 to 1 µg/mL (≈ 0.381 to 1.53 µM).

Question: `COCCn1cncc1CNC(=O)OCC(Oc1ccc(F)c(C(N)=O)c1F)c1nc(-c2ccc(C(F)(F)F)cc2)c(Br)o1` (centres unmarked) [Compound 207, 2-(5-bromo-4-(4-(trifluoromethyl)phenyl)oxazol-2-yl)-2-(3-carbamoyl-2,4-difluorophenoxy)ethyl ((1-(2-methoxyethyl)-1H-imidazol-5-yl)methyl)carbamate] was tested. Which MIC did it give?
Answer: The MIC was 1 to 16 µg/mL (≈ 1.45 to 23.2 µM).

Question: Which MIC does the source give for `Cc1cccc(CNC(=O)OCC(Oc2ccc(F)c(C(N)=O)c2F)c2nc(-c3ccc(C(F)(F)F)cc3)c(Br)o2)n1` (centres unmarked) [Compound 199, 2-(5-bromo-4-(4-(trifluoromethyl)phenyl)oxazol-2-yl)-2-(3-carbamoyl-2,4-difluorophenoxy)ethyl ((6-methylpyridin-2-yl)methyl)carbamate] here?
Answer: Its MIC is 0.25 to 1 µg/mL (≈ 0.381 to 1.53 µM).

Question: For `NC(=O)c1c(F)ccc(O[C@H](COCCO)c2nc(-c3ccc(F)cc3F)c(Br)o2)c1F` [Compound 265B, (R)-3-(1-(5-bromo-4-(2,4-difluorophenyl)oxazol-2-yl)-2-(2-hydroxyethoxy)ethoxy)-2,6-difluorobenzamide], which MIC is on record?
Answer: Its MIC is 1 to 16 µg/mL (≈ 1.93 to 30.8 µM).

Question: How did the MIC turn out when `Cc1cnccc1CNC(=O)OCC(Oc1ccc(F)c(C(N)=O)c1F)c1nc(-c2ccc(C(F)(F)F)cc2)c(Br)o1` (centres unmarked) [Compound 216, 2-(5-bromo-4-(4-(trifluoromethyl)phenyl)oxazol-2-yl)-2-(3-carbamoyl-2,4-difluorophenoxy)ethyl ((3-methylpyridin-4-yl)methyl)carbamate] was run?
Answer: Its MIC is 0.25 to 1 µg/mL (≈ 0.381 to 1.53 µM).

Question: Which MIC does the source give for `NC(=O)c1c(F)ccc(OC(CO)c2nc(-c3cccs3)c(Br)o2)c1F` (centres unmarked) [Compound 243, 3-(1-(5-bromo-4-(thiophen-2-yl)oxazol-2-yl)-2-hydroxyethoxy)-2,6-difluorobenzamide] here?
Answer: Its MIC is 1 to 16 µg/mL (≈ 2.25 to 35.9 µM).

Question: Which MIC does the source give for `CS(=O)(=O)OCC(Oc1ccc(F)c(C(N)=O)c1F)c1nc(-c2ccc(Cl)cc2)c(Cl)o1` (centres unmarked) [Compound 48, 2-(3-carbamoyl-2,4-difluorophenoxy)-2-(5-chloro-4-(4-chlorophenyl)oxazol-2-yl)ethyl methanesulfonate] here?
Answer: Its MIC is 1 to 16 µg/mL.

Question: `CCCc1oc(C(C)Oc2ccc(F)c(C(N)=O)c2F)nc1-c1ccc(OC(F)(F)F)cc1` (centres unmarked) [Compound 20, 2,6-difluoro-3-(1-(5-propyl-4-(4-(trifluoromethoxy)phenyl)oxazol-2-yl)ethoxy)benzamide] was tested. Which MIC did it give?
Answer: Its MIC is less than 0.25 µg/mL.

Question: `NC(=O)c1c(F)ccc(OC(CO)c2nc(C3CCOCC3)c(Br)o2)c1F` (centres unmarked) [Compound 187, 3-(1-(5-bromo-4-(tetrahydro-2H-pyran-4-yl)oxazol-2-yl)-2-hydroxyethoxy)-2,6-difluorobenzamide] was tested. Which MIC did it give?
Answer: Its MIC is greater than 16 µg/mL.

Question: With `NC(=O)c1c(F)ccc(O[C@H](CO)c2nc(-c3cncs3)c(Br)o2)c1F` [Compound 247B, (R)-3-(1-(5-bromo-4-(thiazol-5-yl)oxazol-2-yl)-2-hydroxyethoxy)-2,6-difluorobenzamide] as the molecule, how does the MIC read?
Answer: Its MIC is greater than 16 µg/mL.

Question: For `CCOc1ncc(-c2csc(C(C)Oc3ccc(F)c(C(N)=O)c3F)n2)s1` (centres unmarked) [Compound 14], which MIC is on record?
Answer: Its MIC is less than 0.25 µg/mL.

Question: For `C[C@H](O)[C@@H](Oc1ccc(F)c(C(N)=O)c1F)c1nc(-c2ccc(OC(F)F)cc2)c(Br)o1` [Compound 300, 3-((1R,2S)-1-(5-bromo-4-(4-(difluoromethoxy)phenyl)oxazol-2-yl)-2-hydroxypropoxy)-2,6-difluorobenzamide], which MIC is on record?
Answer: The MIC was less than 0.25 µg/mL.

Question: With `NC(=O)c1c(F)ccc(OC(CO)c2nc(-c3ccc(Cl)cc3)co2)c1F` (centres unmarked) [Compound 10, 3-(1-(4-(4-chlorophenyl)oxazol-2-yl)-2-hydroxyethoxy)-2,6-difluorobenzamide] as the molecule, how does the MIC read?
Answer: Its MIC is greater than 16 µg/mL.

Question: With `CC(C)(C)OC(=O)NCCNC(=O)OCC(Oc1ccc(F)c(C(N)=O)c1F)c1nc(-c2ccc(C(F)(F)F)cc2)c(Br)o1` (centres unmarked) [Compound 151, 2-(5-bromo-4-(4-(trifluoromethyl)phenyl)oxazol-2-yl)-2-(3-carbamoyl-2,4-difluorophenoxy)ethyl tert-butyl ethane-1,2-diyldicarbamate] as the molecule, how does the MIC read?
Answer: The MIC was less than 0.25 µg/mL.

Question: Which MIC does the source give for `COc1cc(Cl)c(Br)cc1-c1nc(C(CO)Oc2ccc(F)c(C(N)=O)c2F)oc1Br` (centres unmarked) [Compound 232, 3-(1-(5-bromo-4-(5-bromo-4-chloro-2-methoxyphenyl)oxazol-2-yl)-2-hydroxyethoxy)-2,6-difluorobenzamide] here?
Answer: The MIC was 1 to 16 µg/mL (≈ 1.72 to 27.5 µM).

Question: For `COCc1oc([C@@H](CO)Oc2ccc(F)c(C(N)=O)c2F)nc1-c1ccc(OC)cc1` [Compound 304B, (R)-2,6-difluoro-3-(2-hydroxy-1-(5-(methoxymethyl)-4-(4-methoxyphenyl)oxazol-2-yl)ethoxy)benzamide], which MIC is on record?
Answer: Its MIC is 1 to 16 µg/mL (≈ 2.3 to 36.8 µM).

Question: For `C=CCOP(=O)(OCC=C)OCC(Oc1ccc(F)c(C(N)=O)c1F)c1nc(-c2ccc(C(F)(F)F)cc2)c(Br)o1` (centres unmarked) [Compound 71, diallyl (2-(5-bromo-4-(4-(trifluoromethyl)phenyl)oxazol-2-yl)-2-(3-carbamoyl-2,4-difluorophenoxy)ethyl) phosphate], which MIC is on record?
Answer: The MIC was 0.25 to 1 µg/mL.

Question: How did the MIC turn out when `NC(=O)c1c(F)ccc(OC(C(=O)O)c2nc(-c3ccc(Cl)cc3)co2)c1F` (centres unmarked) [Compound 12, 2-(3-carbamoyl-2,4-difluorophenoxy)-2-(4-(4-chlorophenyl)oxazol-2-yl)acetic acid] was run?
Answer: Its MIC is greater than 16 µg/mL.

Question: For `NC(=O)c1c(F)ccc(OC(COC(=O)CCCN2C(=O)c3ccccc3C2=O)c2nc(-c3ccc(C(F)(F)F)cc3)c(Br)o2)c1F` (centres unmarked) [Compound 69, 2-(5-bromo-4-(4-(trifluoromethyl)phenyl)oxazol-2-yl)-2-(3-carbamoyl-2,4-difluorophenoxy)ethyl 4-(1,3-dioxoisoindolin-2-yl)butanoate], which MIC is on record?
Answer: Its MIC is 0.25 to 1 µg/mL (≈ 0.346 to 1.38 µM).

Question: Which MIC does the source give for `CN(C)C(=O)c1ccc(-c2nc(C(CO)Oc3ccc(F)c(C(N)=O)c3F)oc2Br)cc1` (centres unmarked) [Compound 252, 4-(5-bromo-2-(1-(3-carbamoyl-2,4-difluorophenoxy)-2-hydroxyethyl)oxazol-4-yl)-N,N-dimethylbenzamide] here?
Answer: Its MIC is greater than 16 µg/mL.

Question: `COCCn1cnnc1CNC(=O)OCC(Oc1ccc(F)c(C(N)=O)c1F)c1nc(-c2ccc(C(F)(F)F)cc2)c(Br)o1` (centres unmarked) [Compound 206, 2-(5-bromo-4-(4-(trifluoromethyl)phenyl)oxazol-2-yl)-2-(3-carbamoyl-2,4-difluorophenoxy)ethyl ((4-(2-methoxyethyl)-4H-1,2,4-triazol-3-yl)methyl)carbamate] was tested. Which MIC did it give?
Answer: Its MIC is 1 to 16 µg/mL (≈ 1.45 to 23.2 µM).

Question: `NC(=O)c1c(F)ccc(OC(CO)c2scc(-c3ccc(Cl)cc3)[n+]2[O-])c1F` (centres unmarked) [Compound 267, 2-(1-(3-carbamoyl-2,4-difluorophenoxy)-2-hydroxyethyl)-4-(4-chlorophenyl)thiazole 3-oxide] was tested. Which MIC did it give?
Answer: The MIC was greater than 16 µg/mL.

Question: Which MIC does the source give for `NC(=O)c1c(F)ccc(OC(CNC(=O)c2cccnc2)c2nc(-c3ccc(C(F)(F)F)cc3)c(Br)o2)c1F` (centres unmarked) [Compound 295, N-(2-(5-bromo-4-(4-(trifluoromethyl)phenyl)oxazol-2-yl)-2-(3-carbamoyl-2,4-difluorophenoxy)ethyl)nicotinamide] here?
Answer: The MIC was 0.25 to 1 µg/mL (≈ 0.409 to 1.64 µM).

Question: `NC(=O)c1c(F)ccc(OC(COCCO)c2nc(-c3ccc(C(F)(F)F)cc3)c(Br)o2)c1F` (centres unmarked) [Compound 150, 3-(1-(5-bromo-4-(4-(trifluoromethyl)phenyl)oxazol-2-yl)-2-(2-hydroxyethoxy)ethoxy)-2,6-difluorobenzamide] was tested. Which MIC did it give?
Answer: Its MIC is 0.25 to 1 µg/mL (≈ 0.454 to 1.81 µM).

Question: Which MIC does the source give for `NCCNC(=O)OCC(Oc1ccc(F)c(C(N)=O)c1F)c1nc(-c2ccc(C(F)(F)F)cc2)c(Br)o1` (centres unmarked) [Compound 152, 2-(5-bromo-4-(4-(trifluoromethyl)phenyl)oxazol-2-yl)-2-(3-carbamoyl-2,4-difluorophenoxy)ethyl (2-aminoethyl)carbamate] here?
Answer: The MIC was 1 to 16 µg/mL (≈ 1.69 to 27 µM).

Question: With `NC(=O)c1c(F)ccc(OC(COCCN2CCOCC2)c2nc(-c3ccc(C(F)(F)F)cc3)c(Br)o2)c1F` (centres unmarked) [Compound 168, 3-(1-(5-bromo-4-(4-(trifluoromethyl)phenyl)oxazol-2-yl)-2-(2-morpholinoethoxy)ethoxy)-2,6-difluorobenzamide] as the molecule, how does the MIC read?
Answer: Its MIC is 1 to 16 µg/mL (≈ 1.61 to 25.8 µM).

Question: `NC(=O)c1c(F)ccc(OC(CO)c2nc(-c3ccc(C(F)(F)F)cc3)oc2Br)c1F` (centres unmarked) [Compound 138, 3-(1-(5-bromo-2-(4-(trifluoromethyl)phenyl)oxazol-4-yl)-2-hydroxyethoxy)-2,6-difluorobenzamide] was tested. Which MIC did it give?
Answer: The MIC was 1 to 16 µg/mL (≈ 1.97 to 31.5 µM).

Question: `CCOC(=O)C(Oc1ccc(F)c(C(N)=O)c1F)c1csc(-c2ccc(C(F)(F)F)cc2)n1` (centres unmarked) [Compound 125, ethyl 2-(3-carbamoyl-2,4-difluorophenoxy)-2-(2-(4-(trifluoromethyl)phenyl)thiazol-4-yl)acetate] was tested. Which MIC did it give?
Answer: Its MIC is 0.25 to 1 µg/mL (≈ 0.514 to 2.06 µM).

Question: Which MIC does the source give for `CCc1oc(-c2ccc(OC)cc2)nc1C(CO)Oc1ccc(F)c(C(N)=O)c1F` (centres unmarked) [Compound 306, 3-(1-(5-ethyl-2-(4-methoxyphenyl)oxazol-4-yl)-2-hydroxyethoxy)-2,6-difluorobenzamide] here?
Answer: Its MIC is 1 to 16 µg/mL (≈ 2.39 to 38.2 µM).
